Reference: patent publication US20130252930A1 (BIOMARIN PHARMACEUTICAL INC., priority 2010, published 2013)
Where two headings read alike, the source gives them in different places.

Tests used:
[1] = molecular target: T1, Cyp21 enzyme (Human HEK 293-Cyp21 stable transfected cells) (Homo sapiens, UniProt P08686); assay: CYP21-HEK293 enzymatic assay (% inhibition at 100 nM) (Biological Example 10); format: cell-based; details: HEK 293-Cyp21 cells
T1 construct: expressed in transfected cells
T1 sequence (P08686 1-495): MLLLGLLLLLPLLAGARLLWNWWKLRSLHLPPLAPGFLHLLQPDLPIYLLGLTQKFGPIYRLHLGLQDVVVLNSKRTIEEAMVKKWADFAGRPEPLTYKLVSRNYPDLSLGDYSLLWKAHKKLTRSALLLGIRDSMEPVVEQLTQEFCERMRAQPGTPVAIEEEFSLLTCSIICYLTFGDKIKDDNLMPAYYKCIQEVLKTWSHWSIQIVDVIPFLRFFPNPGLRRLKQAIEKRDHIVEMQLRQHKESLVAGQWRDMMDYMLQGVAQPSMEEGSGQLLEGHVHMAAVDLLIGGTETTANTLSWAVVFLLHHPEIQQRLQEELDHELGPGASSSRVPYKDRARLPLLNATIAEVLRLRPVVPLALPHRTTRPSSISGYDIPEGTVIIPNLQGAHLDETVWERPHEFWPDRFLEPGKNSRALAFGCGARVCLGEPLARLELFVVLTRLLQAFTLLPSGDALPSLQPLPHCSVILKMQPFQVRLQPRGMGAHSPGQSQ
In short: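 HEK293 cells stably expressing human Cyp21 in DMEM + 10% FBS got compound (100 nM reported) for 5 h at 37 °C; 1% methanol served as mock. Progesterone substrate (final 10 μM) was then added for 20 h. DOC in the medium was measured by competitive ELISA (OD 450 nm) against a standard curve.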

[2] = Rat liver microsome stability assay (Biological Example 8a); details: liver microsomes, pH 7.4
Procedure: Each test compound (1.5 μM, 30 μL) was incubated with rat (BD Gentest, Cat No. 452501) or human (BD Gentest, Cat No. 452161) liver microsomes (0.75 mg/mL, 0.1 M potassium phosphate buffer, 1.0 mM EDTA, pH 7.4) in 96 well plates. The reaction was started with addition of excess NADPH (5 mg/mL, 15 μL in 0.1 M potassium phosphate buffer, 1.0 mM EDTA, pH 7.4), the total volume is 45 μL (compound final concentration was 1 μM). The incubations were terminated at time zero and at 5, 15, 30, and 60 minutes by addition of 135 μL/excess ACN containing internal standard (1S). After quenching, the reaction mixtures was centrifuged (Eppendorf Centrifuge 5810R) at 3220×g for 10 min (4° C.). 50 μL of the supernatant was transferred from each well into a 96-well sample plate containing 50 μL of ultra-pure water (Millipore) for LC-MS/MS analysis. The half-life T1/2=0.693/K (K is the rate constant from a plot of log [concentration] vs. incubation time) was calculated.

[3] = molecular target: T2, CYP17 (human testicular microsome) (Homo sapiens, UniProt P05093); assay: CYP17 enzymatic assay (% inhibition at 10 nM), version 1 (Biological Example 5); format: biochemical; details: 10 nM compound, DHEA by ELISA, read-out: Biological Example No. 5: CYP17 percent inhibition at 10 nM (version 1)
T2 construct: using microsomal fraction from human testis (Celsis Cat #S00110) as the enzyme source; tissue Celsis S00110; host or cells: human testis microsomal fraction
T2 sequence (P05093 1-508): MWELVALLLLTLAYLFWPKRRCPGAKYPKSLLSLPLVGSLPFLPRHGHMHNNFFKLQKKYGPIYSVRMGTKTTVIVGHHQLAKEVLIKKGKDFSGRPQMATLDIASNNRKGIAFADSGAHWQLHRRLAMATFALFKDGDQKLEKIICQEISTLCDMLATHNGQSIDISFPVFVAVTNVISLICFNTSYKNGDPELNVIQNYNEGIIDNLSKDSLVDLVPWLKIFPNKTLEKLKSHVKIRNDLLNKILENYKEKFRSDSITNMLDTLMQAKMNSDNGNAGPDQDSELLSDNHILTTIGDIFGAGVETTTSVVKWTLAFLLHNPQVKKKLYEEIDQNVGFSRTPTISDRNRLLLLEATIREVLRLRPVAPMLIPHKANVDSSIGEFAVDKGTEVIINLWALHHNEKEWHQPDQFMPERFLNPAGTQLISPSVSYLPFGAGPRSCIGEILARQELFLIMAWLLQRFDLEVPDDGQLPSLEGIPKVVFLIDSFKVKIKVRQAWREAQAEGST

[4] = Human liver microsome stability assay (Biological Example 8b); details: liver microsomes, pH 7.4
Procedure: The reaction was started with addition of excess NADPH (5 mg/mL, 15 μL in 0.1 M potassium phosphate buffer, 1.0 mM EDTA, pH 7.4), the total volume is 45 μL (compound final concentration was 1 μM). […] 50 μL of the supernatant was transferred from each well into a 96-well sample plate containing 50 μL of ultra-pure water (Millipore) for LC-MS/MS analysis.

[5] = molecular target: T2, CYP17 (human testicular microsome); assay: CYP17 enzymatic assay (% inhibition at 1 nM) (Biological Example 12); format: biochemical; details: compound at 1 nM, read-out: CYP17 enzymatic assay % inhibition at 1 nM (Biological Example No. 12)
[6] = 100 nM compound, read-out: Biological Example No. 10: CYP21-HEK293 percent inhibition at 100 nM

C[C@]12CC[C@H]3[C@@H](CC=C4C[C@@H](O)CC[C@@]43C)C1=CC=C2c1cccnc1 [Compound 79, (3S,10R,13S)-10,13-dimethyl-17-(pyridin-3-yl)-2,3,4,7,8,9,10,11,12,13-decahydro-1H-cyclopenta[a]phenanthren-3-ol]
inhibition at 0.1 µM [1, 6]: < 30%
half-life at 1 μM [2]: 10 to 60 min
inhibition at 0.01 µM [3]: 50 to 80%
half-life at 1 μM [4]: 1 to 50 min

C[C@]12CC(O)C[C@@H]1CC[C@@H]1[C@@H]2CC[C@]2(C)C(n3ccnc3)=CC[C@@H]12 (stereo partly drawn) [Compound 109, (3aS,5aS)-6-(1H-imidazol-1-yl)-3a,5a-dimethyl-1,2,3,3a,3b,4,5,5a,8,8a,8b,9,10,10a-tetradecahydrodicyclopenta[a,f]naphthalen-2-ol]
inhibition at 0.1 µM [1, 6]: ≥ 30%
half-life at 1 μM [2]: 10 to 60 min
inhibition at 0.01 µM [3]: > 80%

CC(=O)NC1CC[C@@]2(C)C(=CCC3C2CC[C@]2(C)C(n4ccnc4)=CCC32)C1 (stereo partly drawn) [Compound 237, N-((10R,13S)-17-(1H-imidazol-1-yl)-10,13-dimethyl-2,3,4,7,8,9,10,11,12,13,14,15-dodecahydro-1H-cyclopenta[a]phenanthren-3-yl)acetamide]
inhibition at 0.1 µM ([1]; compound at 100 nM, read-out: CYP21-HEK293 enzymatic assay % inhibition at 100 nM (Biological Example No. 10)): < 30%
inhibition at 0.001 µM [5]: > 50%
half-life at 1 μM [4]: > 50 min
